{
  "source": "patent US4764361A",
  "about": "“Pharmaceutical compositions” (Imperial Chemical Industries PLC, priority 1987, dated 1988)",
  "assay_type_in_all_cases": "in vivo",
  "key": {"[1]": {"tested_on": "cardiovasculature", "experiment": "adverse effects on the cardiovasculature after topical administration", "conditions": "large doses administered topically to the skin"}, "[2]": {"tested_on": "oxazolone induced contact dermatitis (erythema)", "experiment": "Test C: oxazolone induced contact dermatitis in the domestic pig", "procedure": "(c) in a standard test involving oxazolone induced contact dermatitis in the domestic pig (Test C).\nMethod: Domestic pigs were sensitised by topical application of 0.4 ml of a 10% w/v solution of oxazolone in acetone to the neck region on two occasions two weeks apart. Six paired sites were then prepared and delineated with one site from each pair to the left and one to the right of the mid-line of the back of the animal. […] The left hand site of the second three pairs was similarly treated with 0.05 ml of a second solution of the test compound in acetone at pH 5. All of the righthand sites were used as controls and were treated with 0.05 ml of acetone (acidified to pH 5 with citric acid). After 24 hours, the same treatment was repeated followed immediately by a challenge of 0.025 ml of a 1% w/v solution of oxazolone in acetone to the 1st and 4th pairs of sites, of 5% w/v solution of oxazolone in acetone to the 2nd and 5th pair of sites, and of 10% w/v solution of oxazolone in acetone to the 3rd and 6th pairs of sites. […] An inflammatory index was obtained by multiplying the area and erythema readings together. By comparison of the values for the treated and control sites, the percentage reduction in erythema of the test compound could be assessed."}, "[3]": {"tested_on": "inflammation on the mouse ear induced by the irritant, croton oil", "experiment": "Test A: inhibition of inflammation on the mouse ear induced by croton oil", "conditions": "for % Inhibition / % increase in ear weight ± SEM / ED50 application rate: topical; for % Inhibition / % increase in ear weight ± SEM: 4 hours; for ED50 application rate: Test A; for activity as topical anti-inflammatory agent: application rate of 250 micrograms/ear", "procedure": "(a) in a standard test involving the inhibition of inflammation on the mouse ear induced by the irritant, croton oil (Test A);\n(a) Method: Groups of mice were dosed with an acetone solution of test compound or vehicle (acetone) pre-mixed with an equal volume of 4% w/v croton oil in acetone topically to the right ear (10 μl volume). Four hours later, the animals were killed and both the left (control) and right (treated) ears were removed and weighed. The percentage increase in ear weight of the treated against control was then calculated. The anti-inflammatory activity was finally expressed as percentage inhibition for the test compound dosed group in comparison with the vehicle dosed control group."}, "[4]": {"tested_on": "delayed hypersensitivity reaction to the contact irritant oxazolone", "experiment": "Test B: inhibition of the delayed hypersensitivity reaction to oxazolone in mice", "conditions": "for Inhibition: 24 hours, free base in acidified acetone pH 5", "procedure": "(b) in a standard test involving the inhibition of the delayed hypersensitivity reaction to the contact irritant, 4-ethoxymethylene-2-phenyloxazolone (hereinafter referred to as oxazolone) in mice (Test B); and\n(a) Method: Mice were sensitised by the topical application of a 10 μl portion of a 0.5% w/v solution of oxazolone in acetone. After 7 days, a 10 μl portion of a solution of the test compound in acetone (acidified to pH 5 with citric acid*) or, for control purposes, just the acidified acetone vehicle, was applied to the right ears of the mice and immediately followed by an application of 10 μl of 0.5% w/v solution of oxazolone in acetone. After 24 hours the animals were killed, the ears removed and results calculated as for Test A above.\n*Note: acidified acetone was used to eliminate any possible reaction between the basic test compound of formula I and the oxazolone.]"}, "[5]": {"conditions": "Average of experiments 1-3, 2% w/v in acetone pH 5"}, "[6]": {"conditions": "Experiment 1, 2% w/v in acetone pH 5, listed as (-)-optically active (S) form"}, "[7]": {"conditions": "Experiment 2, 2% w/v in acetone pH 5"}, "[8]": {"conditions": "Experiment 3, 2% w/v in acetone pH 5"}, "[9]": {"conditions": "cream formulation II, 0.25% w/w"}, "[10]": {"conditions": "1% w/v in aqueous ethanol containing 40% w/v N-methylpyrrolidone"}},
  "note": "Several values for one entry are separate records, joined by “and”; a condition that tells them apart may be missing. Equal values may be shown once.",
  "data": [
    {"smiles": "CC(C)C(=O)NCCNCC(O)COc1ccccc1", "note": "(racemic) [compound of formula I, N-(2-[2-hydroxy-3-phenoxypropyl]aminoethyl)isobutyramide]", "values": [
      {"measurement": "adverse effects on the cardiovasculature", "setting": "[1]", "result": "no adverse effects on the cardiovasculature"},
      {"measurement": "overt toxic or adverse effects", "setting": "[2]; during Test C", "result": "no overt toxic or adverse effects were observed"}
    ]},
    {"smiles": "CC(C)C(=O)NCCNCC(O)COc1ccccc1", "note": "(racemic) [racemate, N-(2-[2-hydroxy-3-phenoxypropyl]aminoethyl)isobutyramide]", "values": [
      {"measurement": "% Inhibition", "setting": "[3]; 2.5 μg/ear", "result": 25.6, "unit": "%"},
      {"measurement": "% increase in ear weight ± SEM", "setting": "[3]; 2.5 μg/ear", "result": "59.1 ± 5.92", "unit": "%"},
      {"measurement": "% Inhibition", "setting": "[3]; 25 μg/ear", "result": 49.3, "unit": "%"},
      {"measurement": "% increase in ear weight ± SEM", "setting": "[3]; 25 μg/ear", "result": "40.2 ± 4.88", "unit": "%"},
      {"measurement": "% Inhibition", "setting": "[3]; 250 μg/ear", "result": 61.8, "unit": "%"},
      {"measurement": "% increase in ear weight ± SEM", "setting": "[3]; 250 μg/ear", "result": "30.3 ± 4.0", "unit": "%"},
      {"measurement": "ED50 application rate", "setting": "[3]", "result": 44, "unit": "micrograms/ear"}
    ]},
    {"smiles": "CC(C)C(=O)NCCNC[C@H](O)COc1ccccc1", "note": "[(-)-(S) form, (-)-N-(2-[2-hydroxy-3-phenoxypropyl]aminoethyl)isobutyramide]", "values": [
      {"measurement": "% Inhibition", "setting": "[3]; 4.9 μg/ear", "result": 23.8, "unit": "%"},
      {"measurement": "% increase in ear weight ± SEM", "setting": "[3]; 4.9 μg/ear", "result": "65.2 ± 3.17", "unit": "%"},
      {"measurement": "% Inhibition", "setting": "[3]; 14.8 μg/ear", "result": 46.5, "unit": "%"},
      {"measurement": "% increase in ear weight ± SEM", "setting": "[3]; 14.8 μg/ear", "result": "45.8 ± 3.96", "unit": "%"},
      {"measurement": "% Inhibition", "setting": "[3]; 44.4 μg/ear", "result": 52.2, "unit": "%"},
      {"measurement": "% increase in ear weight ± SEM", "setting": "[3]; 44.4 μg/ear", "result": "40.9 ± 4.02", "unit": "%"},
      {"measurement": "% Inhibition", "setting": "[3]; 133.3 μg/ear", "result": 66.5, "unit": "%"},
      {"measurement": "% increase in ear weight ± SEM", "setting": "[3]; 133.3 μg/ear", "result": "28.6 ± 3.56", "unit": "%"},
      {"measurement": "% Inhibition", "setting": "[3]; 400 μg/ear", "result": 91.8, "unit": "%"},
      {"measurement": "% increase in ear weight ± SEM", "setting": "[3]; 400 μg/ear", "result": "7.0 ± 1.25", "unit": "%"},
      {"measurement": "ED50 application rate", "setting": "[3]", "result": 29, "unit": "micrograms/ear"},
      {"measurement": "% of sites in which erythema is inhibited by 30%", "setting": "[2]; [5]", "result": 71, "unit": "%"},
      {"measurement": "% of sites in which erythema is inhibited by 50%", "setting": "[2]; [5]", "result": 53, "unit": "%"},
      {"measurement": "% of sites in which erythema is inhibited by 70%", "setting": "[2]; [5]", "result": 16, "unit": "%"},
      {"measurement": "% of sites in which erythema is inhibited by 30%", "setting": "[2]; [6]", "result": "80% and 73%"},
      {"measurement": "% of sites in which erythema is inhibited by 50%", "setting": "[2]; [6]", "result": "60% and 36%"},
      {"measurement": "% of sites in which erythema is inhibited by 30%", "setting": "[2]; [7]", "result": 50, "unit": "%"},
      {"measurement": "% of sites in which erythema is inhibited by 50%", "setting": "[2]; [7]", "result": 50, "unit": "%"},
      {"measurement": "% of sites in which erythema is inhibited by 70%", "setting": "[2]; [7]", "result": 17, "unit": "%"},
      {"measurement": "% of sites in which erythema is inhibited by 30%", "setting": "[2]; [8]", "result": 83, "unit": "%"},
      {"measurement": "% of sites in which erythema is inhibited by 50%", "setting": "[2]; [8]", "result": 67, "unit": "%"},
      {"measurement": "% of sites in which erythema is inhibited by 70%", "setting": "[2]; [8]", "result": 17, "unit": "%"},
      {"measurement": "% of sites in which erythema is inhibited by 30%", "setting": "[2]; [9]", "result": 86, "unit": "%"},
      {"measurement": "% of sites in which erythema is inhibited by 50%", "setting": "[2]; [9]", "result": 29, "unit": "%"},
      {"measurement": "% of sites in which erythema is inhibited by 70%", "setting": "[2]; [9]", "result": 14, "unit": "%"},
      {"measurement": "% of sites in which erythema is inhibited by 30%", "setting": "[2]; cream formulation II, 0.5% w/w", "result": 86, "unit": "%"},
      {"measurement": "% of sites in which erythema is inhibited by 50%", "setting": "[2]; cream formulation II, 0.5% w/w", "result": 29, "unit": "%"},
      {"measurement": "% of sites in which erythema is inhibited by 70%", "setting": "[2]; cream formulation II, 0.5% w/w", "result": 29, "unit": "%"},
      {"measurement": "% of sites in which erythema is inhibited by 30%", "setting": "[2]; cream formulation II, 1% w/w", "result": 88, "unit": "%"},
      {"measurement": "% of sites in which erythema is inhibited by 50%", "setting": "[2]; cream formulation II, 1% w/w", "result": 75, "unit": "%"},
      {"measurement": "% of sites in which erythema is inhibited by 70%", "setting": "[2]; cream formulation II, 1% w/w", "result": 50, "unit": "%"},
      {"measurement": "% of sites in which erythema is inhibited by 30%", "setting": "[2]; cream formulation II, 2% w/w", "result": 100, "unit": "%"},
      {"measurement": "% of sites in which erythema is inhibited by 50%", "setting": "[2]; cream formulation II, 2% w/w", "result": 80, "unit": "%"},
      {"measurement": "% of sites in which erythema is inhibited by 70%", "setting": "[2]; cream formulation II, 2% w/w", "result": 80, "unit": "%"},
      {"measurement": "Inhibition", "setting": "[4]; 2.5 μg/ear", "result": "20 ± 8", "unit": "%"},
      {"measurement": "Inhibition", "setting": "[4]; 25 μg/ear", "result": "35 ± 9", "unit": "%"},
      {"measurement": "Inhibition", "setting": "[4]; 250 μg/ear", "result": "60 ± 7", "unit": "%"},
      {"measurement": "ED50", "setting": "[4]; calculated from the dose-inhibition table", "result": 91, "unit": "μg/ear"}
    ]},
    {"smiles": "CCCCC(=O)O[C@]1(C(=O)CO)[C@@H](C)C[C@H]2[C@@H]3CCC4=CC(=O)C=C[C@]4(C)[C@@]3(F)[C@@H](O)C[C@@]21C", "note": "[BV, betamethasone-17-valerate, reference compound]", "values": [
      {"measurement": "% of sites in which erythema is inhibited by 30%", "setting": "[2]; [10]", "result": 75, "unit": "%"},
      {"measurement": "% of sites in which erythema is inhibited by 50%", "setting": "[2]; [10]", "result": 38, "unit": "%"},
      {"measurement": "% of sites in which erythema is inhibited by 70%", "setting": "[2]; [10]", "result": 25, "unit": "%"}
    ]},
    {"smiles": "C[C@]12CCC(=O)C=C1CC[C@@H]1[C@@H]2[C@@H](O)C[C@@]2(C)[C@H]1CC[C@]2(O)C(=O)CO", "note": "[hydrocortisone, reference compound]", "values": [
      {"measurement": "Inhibition", "setting": "[3]; similar test conditions, 25 μg/ear", "result": "approximately 70%"},
      {"measurement": "% of sites in which erythema is inhibited by 30%", "setting": "[2]; [10]", "result": 67, "unit": "%"},
      {"measurement": "% of sites in which erythema is inhibited by 50%", "setting": "[2]; [10]", "result": 28, "unit": "%"},
      {"measurement": "% of sites in which erythema is inhibited by 70%", "setting": "[2]; [10]", "result": 6, "unit": "%"}
    ]},
    {"smiles": "CC(C)NCC(O)COc1cccc2ccccc12", "note": "(stereo not drawn) [propranolol, reference compound]", "values": [
      {"measurement": "activity as topical anti-inflammatory agent", "setting": "[3]", "result": "inactive"}
    ]},
    {"smiles": "CC(C)C(=O)NCCNC[C@@H](O)COc1ccccc1", "note": "[reference compound]", "values": [
      {"measurement": "activity as topical anti-inflammatory agent", "setting": "[3]", "result": "inactive"}
    ]},
    {"smiles": "O=C(NCCNCC(O)COc1ccc(O)cc1)N1CCOCC1", "note": "(stereo not drawn) [xamoterol, reference compound]", "values": [
      {"measurement": "activity as topical anti-inflammatory agent", "setting": "[3]", "result": "inactive"}
    ]}
  ]
}
